Reference: patent publication US20100104524A1, “COSMETIC COMPOSITION FOR SKIN WHITENING COMPRISING ARCTIIN, ARCTIGENIN OR THE MIXTURE THEREOF AS ACTIVE” (priority 2007, published 2010)
Read-outs that look alike come from different tables or passages of the source. Each block holds one compound with its values, some of them ahead of it.

Key:
Format in all cases: cell-based, mice
[1] = tested on: B-16 melanoma (ATCC CRL 6323) cell line; assay: Melanin synthesis inhibition by forsythia suspensa active substances (IC50); conditions: for Melanin synthesis inhibition (in words): compared to other substances of Forsythia suspensa; for IC50: Mus musculus, B16, 120 h, read-out: Melanin synthesis inhibition IC50
Protocol: (§1) α-MSH, for an experiment for melanin synthesis inhibition, was dissolved in 10% DMSO (Dimethyl sulfoxide), and was used as 1 mM solution. B-16 melanoma (ATCC CRL 6323) cell line (derived from mice) was inoculated into a DMEM medium including 4.5 g/L of glucose, 10% serum, and 1% antibiotics, and was subcultured in 75[…] T-flask under 5% CO2 and at 37° C. The subcultured melanoma cell line was cultured in 75[…] T-flask for 24 hours, and was treated with 0.05% Trypsin containing 0.02% EDTA. Then, cells were separated, were inoculated in 75[…] T-flask, and were further cultured for 6 hours. Herein, the number of cells was 1×10^7 cells/flask. Then, a melanocyte-stimulating hormone was diluted in a DMEM medium to a final concentration 100[…]. Next, each of arctiin, arctigenin, matairesinol, oleanolic acid, betulinic acid, rutin, and ursolic acid was diluted in the DMEM medium to a final concentration of 10-1000 □/□ to carry out treatment of melanoma cells, and then, the cells were further cultured at 37° C. for 5 days. Next, the medium was obtained to measure absorbance at 475 nm, and through comparison of melanin synthesis, IC50 (□/□), that is, the density for inhibiting melanin synthesis by 50%, was calculated.

[2] = tested on: B-16 melanoma (ATCC CRL 6323) cell line; assay: Melanin synthesis inhibition (%) by arctiin, arctigenin and the mixture thereof; conditions: n = 3, 5 days
Protocol: The subcultured melanoma cell line was cultured in 75[…] T-flask for 24 hours, and was treated with 0.05% Trypsin containing 0.02% EDTA. Then, cells were separated, were inoculated in 75[…] T-flask, and were further cultured for 6 hours. Herein, the number of cells was 1×10^7 cells/flask. Then, a melanocyte-stimulating hormone was diluted in a DMEM medium to a final concentration 100[…]. Next, each of arctiin, arctigenin, matairesinol, oleanolic acid, betulinic acid, rutin, and ursolic acid was diluted in the DMEM medium to a final concentration of 10-1000 □/□ to carry out treatment of melanoma cells, and then, the cells were further cultured at 37° C. for 5 days. […] An experiment of melanin synthesis inhibition was carried out in the same manner as described in EXPERIMENTAL EXAMPLE 1, except the following processes. […] Next, the medium was obtained to measure absorbance at 475 nm, and melanin synthesis was compared. A melanin synthesis inhibition (%) was calculated according to Mathematical Formula 1, with a control value of cell cultures including only a melanocyte stimulating hormone. […] [formula]

[3] = tested on: tyrosinase; assay: Expression inhibition I of a melanin synthesis enzyme in melanocyte (tyrosinase band in gel); conditions: for Intensity of tyrosinase band: 100 □/□, 3 days culture, lower intensity = higher inhibition of tyrosinase biosynthesis, controls 123 (Control Exp 1) and 211 (Control Exp 2); for Inhibiting effect on biosynthesis of tyrosinase (in words): compared to Control Example 2 containing only a melanocyte stimulating hormone
Protocol: as §1
An experiment was carried out in the same manner as described in Experimental Example 1 except that each of arctiin, arctigenin, matairesinol, oleanolic acid, betulinic acid, rutin, and ursolic acid was added, and culture was further carried out for 3 days to obtain cells. Also, in order to compare the expression inhibition of a melanin synthesis enzyme, experiments on Control Example 1 containing no forsythia suspensa active substance and Control Example 2 containing a melanocyte stimulating hormone were carried out. Obtained cells were washed with sodium phosphate buffer two times, were treated with 0.1% triton X-100, and were reacted by a sonicator for 30 seconds. From the reaction solution, cell precipitate and supernatant were separated by using a high-speed centrifuge at 12,000 rpm for 30 minutes at 4° C. From the separated supernatant, protein was separated by using electrophoresis, and was reacted in a reaction solution containing 0.2% DOPA solution for about 8 hours. Then, the production of tyrosinase in gel was measured.

[4] = tested on: tyrosinase; assay: Expression inhibition II of a melanin synthesis enzyme from melanocyte (tyrosinase band in gel); conditions: 100 □/□ substance with melanocyte stimulating hormone 100; 3 days culture; controls 123 and 211
Protocol: The subcultured melanoma cell line was cultured in 75[…] T-flask for 24 hours, and was treated with 0.05% Trypsin containing 0.02% EDTA. Then, cells were separated, were inoculated in 75[…] T-flask, and were further cultured for 6 hours. Herein, the number of cells was 1×10^7 cells/flask. Then, a melanocyte-stimulating hormone was diluted in a DMEM medium to a final concentration 100[…]. Next, each of arctiin, arctigenin, matairesinol, oleanolic acid, betulinic acid, rutin, and ursolic acid was diluted in the DMEM medium to a final concentration of 10-1000 □/□ to carry out treatment of melanoma cells, and then, the cells were further cultured at 37° C. for 5 days. […] An expression inhibiting effect of a melanin synthesis enzyme from melanocyte, which can be achieved by arctiin, arctigenin, or the mixture thereof, was determined. An experiment was carried out in the same manner as described in Experimental Example 1 except that each of arctiin, arctigenin, a 1:3 mixture of arctiin and arctigenin, and a 3:1 mixture of arctiin and arctigenin prepared by Preparation Examples 1 and 2 was added and culture was further carried out for 3 days to obtain cells. […] And then, the production of tyrosinase was measured in electrophoresis gel.

[5] = tested on: NIH/3T3 (ATCC CRL 1658) cell line; assay: Cytotoxicity on fibroblast cell (MTT); conditions: for Cell viability (%): 12 hours, MTT
Protocol: On a fibroblast cell, toxicity of arctiin, arctigenin, a 1:3 mixture of arctiin and arctigenin, and a 3:1 mixture of arctiin and arctigenin prepared by Preparation Examples 1 and 2 was measured, respectively. NIH/3T3 (ATCC CRL 1658) cell line (derived from mice) as a fibroblast cell, which was purchased, was inoculated into a DMEM medium including 4.5 g/L of glucose, 10% serum, and 1% antibiotics, and was subcultured in 75[…] T-flask at 37° C. The subcultured cell line was cultured under 5% CO2 for 24 hours, and then it was treated with 0.05% Trypsin containing 0.02% EDTA. Then, cells were separated, were inoculated into 96-well-flask (1×10^4 cells/well) and stabilized through culture for 6 hours. To the cells, each of arctiin, arctigenin, a 1:3 mixture of arctiin and arctigenin, and a 3:1 mixture of arctiin and arctigenin was added as noted in Table 5, and culture was further carried out for 12 hours. After the culture, 10[…] of MTT (3-(4,5-dimethylthiazol-2-yl) 2,5-diphenyl tetrazolin bromide) solution (5[…]/□) was added in each well, and culture was carried out for 4 hours. Then, 100[…] of DMSO (Dimethyl sulfoxide) solution was added, and absorbance was measured at O.D. 570 nm to calculate the cell viability. […] Herein, the cell viability of 100% was based on the absorbance in the case of no additional substance.

[6] = α-MSH-stimulated B-16 melanoma, 5 days, medium absorbance at 475 nm

SMILES: COc1cc(CC2C(=O)OCC2Cc2ccc(OC)c(OC)c2)ccc1O (stereo not shown) [Arctigenin, 4-[(3,4-Dimethoxyphenyl)methyl]dihydro-3-[(4-hydroxy-3-metoxyphenyl)methyl]-2(3H)-furanone]
Melanin synthesis inhibition (in words) [1]: most effective | Melanin synthesis inhibition (%) ([2]; final concentration 60 □/□): 66.8% | Melanin synthesis inhibition (%) ([2]; final concentration 100 □/□): 79.6% | Melanin synthesis inhibition (%) ([2]; final concentration 140 □/□): 81.3% | Melanin synthesis inhibition (%) ([2]; final concentration 180 □/□): 84.3% | Intensity of tyrosinase band [3]: 135 | Inhibiting effect on biosynthesis of tyrosinase (in words) [3]: significantly high inhibiting effects | Strength of tyrosinase band [4]: 135 | Toxicity determination on cells ([5]; criteria of Table 6): non-toxic | Cell viability (%) ([5]; final concentration 20 □/□): 101.2% | Cell viability (%) ([5]; final concentration 60 □/□): 101.0% | Cell viability (%) ([5]; final concentration 100 □/□): 99.8% | Cell viability (%) ([5]; final concentration 140 □/□): 99.6% | Cell viability (%) ([5]; final concentration 180 □/□): 99.7%

IC50 [1, 6]: < 500 µg/mL
SMILES: C=C(C)[C@@H]1CC[C@]2(C(=O)O)CC[C@]3(C)[C@H](CC[C@@H]4[C@@]5(C)CC[C@H](O)C(C)(C)[C@@H]5CC[C@]43C)[C@@H]12 [Betulinic acid]
Intensity of tyrosinase band [3]: 170

SMILES: COc1ccc(CC2COC(=O)C2Cc2ccc(O[C@@H]3O[C@H](CO)[C@@H](O)[C@H](O)[C@H]3O)c(OC)c2)cc1OC (stereo partly shown) [Arctiin, 4-[(3,4-Dimethoxyphenyl)methyl]dihydro-3-[(4-Glucose-3-metoxyphenyl)methyl]-2(3H)-furanone]
Melanin synthesis inhibition (in words) [1]: most effective | Melanin synthesis inhibition (%) ([2]; final concentration 60 □/□): 67.3% | Melanin synthesis inhibition (%) ([2]; final concentration 100 □/□): 78.5% | Melanin synthesis inhibition (%) ([2]; final concentration 140 □/□): 80.3% | Melanin synthesis inhibition (%) ([2]; final concentration 180 □/□): 84.2% | Intensity of tyrosinase band [3]: 155 | Inhibiting effect on biosynthesis of tyrosinase (in words) [3]: significantly high inhibiting effects | Strength of tyrosinase band [4]: 155 | Cell viabilities (range over tested concentrations) [5]: 94-100% | Toxicity determination on cells [5]: non-toxic

IC50 [1, 6]: < 500 µg/mL
SMILES: C[C@H]1[C@H](C)CC[C@]2(C(=O)O)CC[C@]3(C)C(=CC[C@@H]4[C@@]5(C)CC[C@H](O)C(C)(C)[C@@H]5CC[C@]43C)[C@H]12 [Ursolic acid]
Intensity of tyrosinase band [3]: 180

IC50 [1, 6]: < 200 µg/mL
SMILES: COc1cc(C[C@H]2COC(=O)[C@@H]2Cc2ccc(O)c(OC)c2)ccc1O [Matairesinol]
Intensity of tyrosinase band [3]: 180

IC50 [1, 6]: < 1000 µg/mL
SMILES: CC1(C)CC[C@]2(C(=O)O)CC[C@]3(C)C(=CC[C@@H]4[C@@]5(C)CC[C@H](O)C(C)(C)[C@@H]5CC[C@]43C)[C@@H]2C1 [Oleanolic acid]
Intensity of tyrosinase band [3]: 200

SMILES: C[C@@H]1O[C@@H](OC[C@H]2O[C@@H](Oc3c(-c4ccc(O)c(O)c4)oc4cc(O)cc(O)c4c3=O)[C@H](O)[C@@H](O)[C@@H]2O)[C@H](O)[C@H](O)[C@H]1O [Rutin]
IC50 [1]: < 500 µg/mL | Intensity of tyrosinase band [3]: 150
